We go through one substance from PMC11162469, “Discovery of RXFP2 genetic association in resistant hypertensive men and RXFP2 antagonists for the treatment of resistant hypertension” (Scientific Reports, 2024).

By EC50 is commonly meant the midpoint of the concentration-response curve.

The subject of experiment [1] is rat RXFP2. Kind of experiment: INSL3-stimulated cAMP assay in HEK293 with BacMam expression of rat RXFP2. The experiment is classed as cell-based. To be noted: read-out: EC50 cAMP in HEK293 transiently expressing rat RXFP2. Here is the method:
Active compounds (RXFP2 HTRF IC50 < 100 µM, RXFP2 FLIPR IC50 < 100 µM) were profiled to determine selectivity and rat cross-reactivity (Fig. 2). The RXFP1 assay detected compound inhibition of relaxin EC80-induced cAMP in HEK293 transiently expressing human RXFP1 (hRXFP1). […] Only 7 of 104 compounds had rRXFP2 IC50 < 100 µM, indicating poorly conserved receptor binding sites across species. RXFP2 blockers were organized into two potential series, based on structural similarity. […] BRL-37274 and GSK618069 were identified as selective RXFP2 antagonists. […] Ultimately, poor chemical properties and low ligand efficiency limited further compound optimization (Table 1, Supplementary Figs. S6, S7).
The nucleotide sequences used in Bacmam transfections encoded RXFP protein as described in UniProt (Q9HBX9. RXFP1_human; Q8WXD0. RXFP2_human; Q5ECL0. RXFP2_rat). […]
(§1) cAMP generation was measured using the Lance Ultra cAMP kit as per manufacturer’s instructions (Perkin Elmer) in HEK293 cells transduced in tissue culture flasks with RXFP BacMam, incubated at 37 °C/5% CO2 for 18 h before assay. […] After a 30 min incubation, 4 µL of Lance detection reagent was added and the FRET signal read 1 h later using a TR-FRET-capable plate reader, with excitation at 340 nm and emission at 615 nm and 665 nm. […]
Background: Cyclic AMP is a second messenger, typically raised through Gs and lowered through Gi signalling.

Experiment [2] concerns the target T1, RXFP2 (Homo sapiens, UniProt Q8WXD0). Put plainly: INSL3-stimulated cAMP assay in HEK293 with BacMam expression of human RXFP2. More on the design: expressed in transfected cells; host or cells: HEK293-MSRII, BacMam transduction (MOI 5). To be noted: HTRF primary assay, read-out: EC50 cAMP in HEK293 expressing human RXFP2. It counts as cell-based.
Description: A high throughput screen (HTS) assay was developed using HEK293 cells transduced with RXFP2 via baculovirus-mediated gene transfer (BacMam)[40]. […] The HTS campaign identified 104 hits across 8 clusters showing blockade of hRXFP2.
The nucleotide sequences used in Bacmam transfections encoded RXFP protein as described in UniProt (Q9HBX9. RXFP1_human; Q8WXD0. RXFP2_human; Q5ECL0. RXFP2_rat). HEK293- MSRII cells were maintained in DMEM‐F12, supplemented with 10% fetal bovine serum (FBS) and L-glutamine at 37 °C/5% CO2. HEK293 stably expressing Gα16 were maintained in DMEM‐F12, supplemented with 10% FBS, L-glutamine and selection antibiotics at 37 °C/5% CO2. Transient receptor expression was achieved using modified baculoviruses (BacMam), generated according to manufacturer’s instructions using the Bac-to-Bac system (Invitrogen, UK) encoding hRXFP1, hRXFP2 or rRXFP2. Cells were transduced with RXFP-BacMam at an optimized multiplicity of infection (MOI) of 5.
as §1

Experiment [3] concerns the target T2, rat RXFP2 (Rattus norvegicus, UniProt F7EMH8). Put plainly: INSL3-stimulated CYP11B1 mRNA expression in H295R stably expressing rat RXFP2. It counts as cell-based. More on the design: expressed in transfected cells. To be noted: 48 h of treatment; read-out: EC50 on CYP11B1 mRNA expression, H295R-rRXFP2. Here is the method:
(§2) RXFP2 antagonists were added to H295R-rRXFP2 before addition of INSL3 EC80 (3.5 nM) for 48 h, whereupon the cells and supernatants were collected. CYP11B1 and CYP11B2 mRNA were determined by qPCR and the RXFP2 blocker potencies were calculated (Fig. 5a). Fifteen antibodies have IC50s < 50 nM, and three of the top antibodies (1F2, 4G6, and 2D4) were selected for evaluation in steroid hormone secretion assays by ELISA.
(§3) Data entered as XY table, with x = [Inhibitor] (nM) and y = CYP11B2 or CYP11B1 fold change.

Experiment [4] deals with T1, RXFP2. Kind of experiment: cell-based.
Description: Resulting molecules were counter screened against parental HEK293 to remove compounds inhibiting cAMP with < tenfold selectivity compared to RXFP2 expressing cells. An orthogonal readout was utilized to confirm RXFP2 antagonist activity; whereby RXFP2 was transiently expressed in HEK293 stably expressing a member of the Gαq G protein family (murine Gα16) to induce promiscuous G-protein coupling and subsequent calcium mobilization.
For the RXFP2 orthologue assay, calcium detection was measured using FLIPR assay technology in HEK293‐ MSRII Gα16 cells. Cells were resuspended in fresh cell culture media in the presence of RXFP2 BacMam and seeded at a density of 15,000 cells/well in 50 µL into black clear‐bottomed 384‐well plates and incubated at 37 °C/5% CO2 for 24 h prior to assay. Media from wells was aspirated and replaced with 30 µL/well of assay buffer (HBSS, 25 mM HEPES, pH 7.4) supplemented with dye-loading reagents (30 µM probenecid, 3 µM Fluo‐4 and 750 µM Brilliant Black). Plates were incubated for 1 h at 37 °C/5% CO2. Test compounds were added to dye-loaded cells at 10 µL/well and incubated for 10 min. Agonist stimulation was induced with the addition of 10 µL/well assay buffer supplemented with a final EC80 concentration of ligand (2.4 nM INSL3). Fluorescence was detected immediately using a FLIPR TETRA plate reader, with excitation at 488 nm and emission at 530 nm. […]
The target of experiment [5] is T2, rat RXFP2. Kind of experiment: INSL3-stimulated CYP11B2 mRNA expression in H295R stably expressing rat RXFP2. The experiment is classed as cell-based. More on the design: expressed in transfected cells. To be noted: 48 h of treatment; read-out: EC50 on CYP11B2 mRNA expression, H295R-rRXFP2. On the procedure: as §2, §3
The target in experiment [6] is T2, rat RXFP2. Put plainly: INSL3-stimulated cAMP assay in HEK293 stably expressing rat RXFP2.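 Further: cAMP measured with an HitHunter kit in 384-well plates, 11-point dose–response curves up to 1 µM antibody, four-parameter variable-slope fit.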
Description: RXFP activity assays were developed in HEK293 with stable expression of RXFP2 or RXFP1.
The same approach was used to generate stable HEK293 lines expressing human and rat RXFP1 and RXFP2 cDNA. The cAMP assay was conducted using the Eurofin Hithunter kit per manufacturer’s instructions in a 384-well format. All dose curve fitting and EC50 and IC50 determinations were performed in Prism (v9.3.0) using the non-linear fit, variable slope (four parameter) function.
Experiment [7] concerns the target T1, RXFP2. Put plainly: INSL3-stimulated cAMP assay in HEK293 stably expressing human RXFP2.

Bridge positions count the residues as written; N and C are the ends. Ends that are not written are not given here. I, II: the chains in the order shown.

T2 sequence (F7EMH8 20-737): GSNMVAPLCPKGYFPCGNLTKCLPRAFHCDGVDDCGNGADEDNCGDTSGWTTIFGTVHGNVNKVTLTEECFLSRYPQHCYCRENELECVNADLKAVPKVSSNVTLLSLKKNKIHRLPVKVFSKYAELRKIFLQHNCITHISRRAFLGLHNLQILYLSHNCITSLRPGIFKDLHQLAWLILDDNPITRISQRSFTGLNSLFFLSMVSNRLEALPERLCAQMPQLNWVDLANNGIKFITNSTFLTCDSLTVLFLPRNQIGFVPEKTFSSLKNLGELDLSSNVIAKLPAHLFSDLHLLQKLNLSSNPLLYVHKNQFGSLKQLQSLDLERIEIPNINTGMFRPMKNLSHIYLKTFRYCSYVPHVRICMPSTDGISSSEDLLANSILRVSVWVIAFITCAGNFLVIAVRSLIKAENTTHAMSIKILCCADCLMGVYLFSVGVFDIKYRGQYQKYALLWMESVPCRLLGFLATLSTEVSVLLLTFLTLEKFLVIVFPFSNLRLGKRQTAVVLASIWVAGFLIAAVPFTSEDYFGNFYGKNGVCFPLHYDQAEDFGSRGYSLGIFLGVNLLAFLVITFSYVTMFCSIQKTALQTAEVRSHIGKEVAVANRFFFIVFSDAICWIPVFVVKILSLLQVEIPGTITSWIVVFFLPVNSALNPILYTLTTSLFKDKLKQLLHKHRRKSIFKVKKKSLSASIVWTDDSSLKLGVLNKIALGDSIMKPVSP
T1 sequence (Q8WXD0 whole entry): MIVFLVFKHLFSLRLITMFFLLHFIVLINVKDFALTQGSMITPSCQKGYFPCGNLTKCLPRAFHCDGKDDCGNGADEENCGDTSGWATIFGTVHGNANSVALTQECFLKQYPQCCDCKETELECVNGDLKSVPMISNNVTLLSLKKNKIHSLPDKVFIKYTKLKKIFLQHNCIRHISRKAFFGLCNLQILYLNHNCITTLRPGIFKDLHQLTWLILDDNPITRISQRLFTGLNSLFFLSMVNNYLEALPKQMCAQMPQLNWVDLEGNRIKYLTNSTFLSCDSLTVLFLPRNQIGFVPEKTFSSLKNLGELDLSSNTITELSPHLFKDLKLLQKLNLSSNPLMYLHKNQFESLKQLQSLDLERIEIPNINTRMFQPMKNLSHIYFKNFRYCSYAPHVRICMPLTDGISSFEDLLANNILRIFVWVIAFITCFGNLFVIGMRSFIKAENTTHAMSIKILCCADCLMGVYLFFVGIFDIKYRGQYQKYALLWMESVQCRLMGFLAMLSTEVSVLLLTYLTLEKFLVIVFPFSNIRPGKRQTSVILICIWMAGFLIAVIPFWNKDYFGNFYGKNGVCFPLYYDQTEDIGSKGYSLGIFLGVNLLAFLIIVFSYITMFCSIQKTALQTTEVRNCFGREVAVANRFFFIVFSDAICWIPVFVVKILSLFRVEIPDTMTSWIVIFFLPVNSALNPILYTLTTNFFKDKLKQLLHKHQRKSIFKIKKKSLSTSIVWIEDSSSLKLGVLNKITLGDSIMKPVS

Turning to “I: PTPEMREKLCGHHFVRALVRVCGGPRWSTEA / II: AAATNPARYCCLSGCTQQDLLTLCPY (disulfide I:10-II:11, I:22-II:24, II:10-II:15) [INSL3, Insulin-like peptide 3]”, the concentration for a half-maximal effect (EC50) came to 13 nM in the experiment with rat RXFP2 [1]; 0.048 nM on RXFP2 [2]; 0.3 nM on rat RXFP2 [3]; 13.4 nM on RXFP2 [4]; 0.4 nM on rat RXFP2 [5]; 8.4 nM on rat RXFP2 [6]. Besides, on RXFP2 [7], the concentration giving a half-maximal response (EC50) is 2.9 nM.
